Measurements taken from PubChem BioAssay (NCI).
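Assay format: 96-well plates, 48-hour exposure. GI50: concentration for 50% inhibition of growth. At the TGI there is no net growth.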 Where a SMILES comes first, the peptide text is derived from it. [ ]: non-standard residue; d: D form. The star is where a group is joined. X13 = OC[C@H](CC1CCCCC1)N*; Aib = CC(C)(N)C(=O)O

What was measured:
Experiment in all cases: growth of human tumour cells (NCI), 48 h
NCI-H522 lung = test system: NCI-H522 lung
OVCAR-3 ovarian = test system: OVCAR-3 ovarian
K-562 leukemia = test system: K-562 leukemia
SNB-19 CNS = test system: SNB-19 CNS
SK-MEL-5 melanoma = test system: SK-MEL-5 melanoma
HCT-15 colon = test system: HCT-15 colon
SF-268 CNS = test system: SF-268 CNS
SF-295 CNS = test system: SF-295 CNS
NCI-H460 lung = test system: NCI-H460 lung
NCI/ADR-RES ovarian = test system: NCI/ADR-RES ovarian
ACHN renal = test system: ACHN renal
OVCAR-4 ovarian = test system: OVCAR-4 ovarian
DU-145 prostate = test system: DU-145 prostate
NCI-H226 lung = test system: NCI-H226 lung
U251 CNS = test system: U251 CNS
RPMI-8226 leukemia = test system: RPMI-8226 leukemia
A549 NSCLC = test system: A549 NSCLC
HOP-92 NSCLC = test system: HOP-92 NSCLC
BT-549 breast = test system: BT-549 breast
SK-MEL-28 melanoma = test system: SK-MEL-28 melanoma
UACC-257 melanoma = test system: UACC-257 melanoma
EKVX NSCLC = test system: EKVX NSCLC
HCC-2998 colon = test system: HCC-2998 colon
SF-539 CNS = test system: SF-539 CNS
SNB-75 CNS = test system: SNB-75 CNS
OVCAR-5 ovarian = test system: OVCAR-5 ovarian
M14 melanoma = test system: M14 melanoma
SR leukemia = test system: SR leukemia
HS 578T breast = test system: HS 578T breast
HOP-62 NSCLC = test system: HOP-62 NSCLC
SK-OV-3 ovarian = test system: SK-OV-3 ovarian
MCF7 breast = test system: MCF7 breast
UO-31 renal = test system: UO-31 renal
A498 renal = test system: A498 renal
786-0 renal = test system: 786-0 renal
T-47D breast = test system: T-47D breast
CCRF-CEM leukemia = test system: CCRF-CEM leukemia
HL-60(TB) leukemia = test system: HL-60(TB) leukemia
NCI-H23 lung = test system: NCI-H23 lung
OVCAR-8 ovarian = test system: OVCAR-8 ovarian
RXF 393 renal = test system: RXF 393 renal
MDA-MB-435 = test system: MDA-MB-435
UACC-62 melanoma = test system: UACC-62 melanoma
SW-620 colon = test system: SW-620 colon
TK-10 renal = test system: TK-10 renal
LOX IMVI melanoma = test system: LOX IMVI melanoma
SN12C renal = test system: SN12C renal
MDA-MB-231 breast = test system: MDA-MB-231 breast
COLO 205 colon = test system: COLO 205 colon
IGROV1 ovarian = test system: IGROV1 ovarian
PC-3 prostate = test system: PC-3 prostate
MALME-3M melanoma = test system: MALME-3M melanoma
HT29 colon = test system: HT29 colon
KM12 colon = test system: KM12 colon
HCT-116 colon = test system: HCT-116 colon
SK-MEL-2 melanoma = test system: SK-MEL-2 melanoma
MOLT-4 leukemia = test system: MOLT-4 leukemia

CC(=O)NC(C)(C)C(=O)N[C@@H](C)C(=O)NC(C)(C)C(=O)N[C@@H](C)C(=O)NC(C)(C)C(=O)N[C@@H](C)C(=O)N[C@@H](CCC(N)=O)C(=O)NC(C)(C)C(=O)N[C@H](C(=O)NC(C)(C)C(=O)NCC(=O)N[C@@H](CC(C)C)C(=O)NC(C)(C)C(=O)N1CCC[C@H]1C(=O)N[C@H](C(=O)NC(C)(C)C(=O)NC(C)(C)C(=O)N[C@@H](CCC(N)=O)C(=O)N[C@@H](CCC(N)=O)C(=O)N[C@H](CO)CC1CCCCC1)C(C)C)C(C)C (Ac-[Aib]A[Aib]A[Aib]AQ[Aib]V[Aib]GL[Aib]PV[Aib][Aib]QQ-X13)
GI50 (NCI-H522 lung): 1.04 µM
TGI (NCI-H522 lung): > 5 µM
GI50 (OVCAR-3 ovarian): 1.68 µM
TGI (OVCAR-3 ovarian): > 5 µM
GI50 (K-562 leukemia): 2.2 µM
TGI (K-562 leukemia): > 5 µM
GI50 (SNB-19 CNS): 1.79 µM
TGI (SNB-19 CNS): > 5 µM
GI50 (SK-MEL-5 melanoma): 1.1 µM
TGI (SK-MEL-5 melanoma): > 3.14 µM
GI50 (HCT-15 colon): > 5 µM
TGI (HCT-15 colon): > 5 µM
GI50 (SF-268 CNS): 2.24 µM
TGI (SF-268 CNS): > 5 µM
GI50 (SF-295 CNS): 1.64 µM
TGI (SF-295 CNS): > 5 µM
GI50 (NCI-H460 lung): 1.51 µM
TGI (NCI-H460 lung): > 5 µM
GI50 (NCI/ADR-RES ovarian): > 5 µM
TGI (NCI/ADR-RES ovarian): > 5 µM
GI50 (ACHN renal): > 5 µM
TGI (ACHN renal): > 5 µM
GI50 (OVCAR-4 ovarian): 1.58 µM
TGI (OVCAR-4 ovarian): > 5 µM
GI50 (DU-145 prostate): 1.33 µM
TGI (DU-145 prostate): > 5 µM
GI50 (NCI-H226 lung): 2.06 µM
TGI (NCI-H226 lung): > 5 µM
GI50 (U251 CNS): 2.19 µM
TGI (U251 CNS): > 5 µM
GI50 (RPMI-8226 leukemia): 1.16 µM
TGI (RPMI-8226 leukemia): 4 µM
GI50 (A549 NSCLC): > 5 µM
TGI (A549 NSCLC): > 5 µM
GI50 (HOP-92 NSCLC): 1.01 µM
TGI (HOP-92 NSCLC): 3.8 µM
GI50 (BT-549 breast): 1.43 µM
TGI (BT-549 breast): > 5 µM
GI50 (SK-MEL-28 melanoma): 0.199 µM
TGI (SK-MEL-28 melanoma): 1.37 µM
GI50 (UACC-257 melanoma): 0.446 µM
TGI (UACC-257 melanoma): 2.67 µM
GI50 (EKVX NSCLC): 2.29 µM
TGI (EKVX NSCLC): > 5 µM
GI50 (HCC-2998 colon): 2.91 µM
TGI (HCC-2998 colon): > 5 µM
GI50 (SF-539 CNS): 2.28 µM
TGI (SF-539 CNS): > 5 µM
GI50 (SNB-75 CNS): 1.07 µM
TGI (SNB-75 CNS): > 5 µM
GI50 (OVCAR-5 ovarian): > 4.67 µM
TGI (OVCAR-5 ovarian): > 5 µM
GI50 (M14 melanoma): 0.221 µM
TGI (M14 melanoma): > 5 µM
GI50 (SR leukemia): 3.37 µM
TGI (SR leukemia): > 5 µM
GI50 (HS 578T breast): 3.71 µM
TGI (HS 578T breast): > 5 µM
GI50 (HOP-62 NSCLC): > 5 µM
TGI (HOP-62 NSCLC): > 5 µM
GI50 (SK-OV-3 ovarian): > 5 µM
TGI (SK-OV-3 ovarian): > 5 µM
GI50 (MCF7 breast): 0.399 µM
TGI (MCF7 breast): > 5 µM
GI50 (UO-31 renal): > 3.96 µM
TGI (UO-31 renal): > 5 µM
GI50 (A498 renal): > 4.12 µM
TGI (A498 renal): > 5 µM
GI50 (786-0 renal): > 5 µM
TGI (786-0 renal): > 5 µM
GI50 (T-47D breast): 1.26 µM
TGI (T-47D breast): > 5 µM
GI50 (CCRF-CEM leukemia): > 4.8 µM
TGI (CCRF-CEM leukemia): > 5 µM
GI50 (HL-60(TB) leukemia): 1.3 µM
TGI (HL-60(TB) leukemia): > 5 µM
GI50 (NCI-H23 lung): 1.38 µM
TGI (NCI-H23 lung): > 5 µM
GI50 (OVCAR-8 ovarian): > 4.25 µM
TGI (OVCAR-8 ovarian): > 5 µM
GI50 (RXF 393 renal): 2.63 µM
TGI (RXF 393 renal): > 5 µM
GI50 (MDA-MB-435): 0.834 µM
TGI (MDA-MB-435): > 5 µM
GI50 (UACC-62 melanoma): 0.609 µM
TGI (UACC-62 melanoma): > 5 µM
GI50 (SW-620 colon): 1.65 µM
TGI (SW-620 colon): > 5 µM
GI50 (TK-10 renal): 3.43 µM
TGI (TK-10 renal): > 5 µM
GI50 (LOX IMVI melanoma): 1.56 µM
TGI (LOX IMVI melanoma): > 5 µM
GI50 (SN12C renal): 1.82 µM
TGI (SN12C renal): > 5 µM
GI50 (MDA-MB-231 breast): 2.49 µM
TGI (MDA-MB-231 breast): > 5 µM
GI50 (COLO 205 colon): 0.178 µM
TGI (COLO 205 colon): 1.22 µM
GI50 (IGROV1 ovarian): 3.06 µM
TGI (IGROV1 ovarian): > 5 µM
GI50 (PC-3 prostate): 1.98 µM
TGI (PC-3 prostate): > 5 µM
GI50 (MALME-3M melanoma): 0.0306 µM
TGI (MALME-3M melanoma): 0.239 µM
GI50 (HT29 colon): 0.286 µM
TGI (HT29 colon): > 5 µM
GI50 (KM12 colon): > 4.1 µM
TGI (KM12 colon): > 5 µM
GI50 (HCT-116 colon): 2.04 µM
TGI (HCT-116 colon): > 5 µM
GI50 (SK-MEL-2 melanoma): 1.44 µM
TGI (SK-MEL-2 melanoma): > 5 µM
GI50 (MOLT-4 leukemia): > 5 µM
TGI (MOLT-4 leukemia): > 5 µM
